PMC12300041, “Tricyclic Isatin Derivatives as Anti-Inflammatory Compounds with High Kinase Binding Affinity” (Molecules, 2025)

Columns and labels:
Assay in all cases: KINOMEscan
HIPK3 = biological target: T1, HIPK3 (Homo sapiens, UniProt Q9H422); format: binding; details: for Kd: HIPK3, N.B.: no binding at concentrations up to 30 µM
T1 construct: purchased Eurofins Pharma Discovery (KINOMEscan)
Experimental: (§1) Kinase profiling was performed by KINOMEscan (Eurofins Pharma Discovery, San Diego, CA, USA), using a panel of 423 protein kinases, as described previously. Compounds were submitted for dissociation constant (Kd) determination toward several target kinases using KINOMEscan. […] Binding reactions were performed at room temperature for 1 h, and the fraction of kinase not bound to the test compound was determined by capture with an immobilized affinity ligand and quantified by quantitative polymerase chain reaction. The primary screening at fixed concentrations of the compound was performed in duplicate. For dissociation constant Kd determination, a 12-point half-log dilution series (a maximum concentration of 33 μM) was used.

DAPK3 = biological target: T2, DAPK3 (Homo sapiens, UniProt O43293); format: binding; details: for Kd: DAPK3, N.B.: no binding at concentrations up to 30 µM
T2 construct: purchased Eurofins Pharma Discovery (KINOMEscan)
T2 sequence (O43293 whole entry): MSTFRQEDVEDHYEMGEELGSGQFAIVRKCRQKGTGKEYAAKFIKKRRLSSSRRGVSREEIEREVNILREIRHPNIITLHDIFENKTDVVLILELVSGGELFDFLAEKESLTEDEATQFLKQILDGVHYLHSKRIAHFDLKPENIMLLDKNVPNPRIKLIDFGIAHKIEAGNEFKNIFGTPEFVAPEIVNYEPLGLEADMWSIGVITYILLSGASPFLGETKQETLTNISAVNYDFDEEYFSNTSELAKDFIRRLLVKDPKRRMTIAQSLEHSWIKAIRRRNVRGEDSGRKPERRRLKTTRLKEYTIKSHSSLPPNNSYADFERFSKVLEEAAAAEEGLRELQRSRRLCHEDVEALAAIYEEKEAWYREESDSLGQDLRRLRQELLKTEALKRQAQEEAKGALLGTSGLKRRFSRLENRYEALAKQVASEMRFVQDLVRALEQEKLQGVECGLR
Experimental: as §1

DYRK1A = biological target: T3, DYRK1A (Homo sapiens, UniProt Q13627); format: binding; details: for Kd: DYRK1A, N.B.: no binding at concentrations up to 30 µM
T3 construct: purchased Eurofins Pharma Discovery (KINOMEscan)
Experimental: as §1

NEK10 = biological target: T4, NEK10 (Homo sapiens, UniProt Q6ZWH5); format: binding; details: for Kd: NEK10, N.B.: no binding at concentrations up to 30 µM
T4 construct: purchased Eurofins Pharma Discovery (KINOMEscan)
T4 sequence (Q6ZWH5 1-1172): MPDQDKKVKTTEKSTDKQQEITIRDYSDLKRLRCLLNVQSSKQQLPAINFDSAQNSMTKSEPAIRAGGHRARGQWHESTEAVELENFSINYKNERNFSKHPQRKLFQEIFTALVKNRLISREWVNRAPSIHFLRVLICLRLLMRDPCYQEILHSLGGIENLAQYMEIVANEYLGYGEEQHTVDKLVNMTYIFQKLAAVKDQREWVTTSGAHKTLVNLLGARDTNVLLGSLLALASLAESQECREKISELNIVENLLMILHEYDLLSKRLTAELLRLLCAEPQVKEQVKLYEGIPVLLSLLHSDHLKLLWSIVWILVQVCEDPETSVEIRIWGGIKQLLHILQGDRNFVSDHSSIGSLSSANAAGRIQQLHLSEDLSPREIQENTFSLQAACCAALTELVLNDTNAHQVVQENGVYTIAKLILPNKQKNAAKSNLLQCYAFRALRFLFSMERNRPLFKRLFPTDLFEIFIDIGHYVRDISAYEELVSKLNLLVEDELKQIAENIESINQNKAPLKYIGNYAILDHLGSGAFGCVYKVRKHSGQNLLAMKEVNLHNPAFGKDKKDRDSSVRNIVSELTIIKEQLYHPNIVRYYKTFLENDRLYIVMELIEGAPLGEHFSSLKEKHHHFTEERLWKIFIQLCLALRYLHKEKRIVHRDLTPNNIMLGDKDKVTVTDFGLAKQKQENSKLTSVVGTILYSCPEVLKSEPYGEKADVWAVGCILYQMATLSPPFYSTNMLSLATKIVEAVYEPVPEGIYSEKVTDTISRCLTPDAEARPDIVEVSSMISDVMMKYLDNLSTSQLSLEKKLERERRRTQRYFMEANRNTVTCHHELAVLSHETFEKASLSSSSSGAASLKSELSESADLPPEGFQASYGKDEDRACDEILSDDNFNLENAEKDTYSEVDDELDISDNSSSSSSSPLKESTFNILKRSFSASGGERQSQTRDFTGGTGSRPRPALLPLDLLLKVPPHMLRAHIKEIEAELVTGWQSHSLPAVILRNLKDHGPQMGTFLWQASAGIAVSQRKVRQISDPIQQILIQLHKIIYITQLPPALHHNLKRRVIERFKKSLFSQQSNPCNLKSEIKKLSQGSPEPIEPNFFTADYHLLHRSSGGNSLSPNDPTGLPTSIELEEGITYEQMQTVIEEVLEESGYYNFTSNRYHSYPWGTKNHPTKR
Experimental: as §1

PIM1 = biological target: T5, PIM1 (Homo sapiens, UniProt P11309); format: binding; details: for Kd: PIM1, N.B.: no binding at concentrations up to 30 µM
T5 construct: purchased Eurofins Pharma Discovery (KINOMEscan)
T5 sequence (P11309 whole entry): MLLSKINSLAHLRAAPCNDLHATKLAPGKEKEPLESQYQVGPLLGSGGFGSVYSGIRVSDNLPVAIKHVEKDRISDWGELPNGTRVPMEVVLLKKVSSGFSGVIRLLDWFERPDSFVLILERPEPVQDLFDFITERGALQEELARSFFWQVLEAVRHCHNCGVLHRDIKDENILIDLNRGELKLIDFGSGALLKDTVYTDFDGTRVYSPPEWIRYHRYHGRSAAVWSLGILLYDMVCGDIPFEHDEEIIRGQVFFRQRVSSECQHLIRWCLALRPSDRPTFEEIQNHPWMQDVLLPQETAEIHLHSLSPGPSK
Experimental: as §1

DAPK1 = biological target: T6, DAPK1 (Homo sapiens, UniProt P53355); format: binding; details: for Kd: DAPK1, N.B.: no binding at concentrations up to 30 µM
T6 construct: purchased Eurofins Pharma Discovery (KINOMEscan)
T6 sequence (P53355 whole entry): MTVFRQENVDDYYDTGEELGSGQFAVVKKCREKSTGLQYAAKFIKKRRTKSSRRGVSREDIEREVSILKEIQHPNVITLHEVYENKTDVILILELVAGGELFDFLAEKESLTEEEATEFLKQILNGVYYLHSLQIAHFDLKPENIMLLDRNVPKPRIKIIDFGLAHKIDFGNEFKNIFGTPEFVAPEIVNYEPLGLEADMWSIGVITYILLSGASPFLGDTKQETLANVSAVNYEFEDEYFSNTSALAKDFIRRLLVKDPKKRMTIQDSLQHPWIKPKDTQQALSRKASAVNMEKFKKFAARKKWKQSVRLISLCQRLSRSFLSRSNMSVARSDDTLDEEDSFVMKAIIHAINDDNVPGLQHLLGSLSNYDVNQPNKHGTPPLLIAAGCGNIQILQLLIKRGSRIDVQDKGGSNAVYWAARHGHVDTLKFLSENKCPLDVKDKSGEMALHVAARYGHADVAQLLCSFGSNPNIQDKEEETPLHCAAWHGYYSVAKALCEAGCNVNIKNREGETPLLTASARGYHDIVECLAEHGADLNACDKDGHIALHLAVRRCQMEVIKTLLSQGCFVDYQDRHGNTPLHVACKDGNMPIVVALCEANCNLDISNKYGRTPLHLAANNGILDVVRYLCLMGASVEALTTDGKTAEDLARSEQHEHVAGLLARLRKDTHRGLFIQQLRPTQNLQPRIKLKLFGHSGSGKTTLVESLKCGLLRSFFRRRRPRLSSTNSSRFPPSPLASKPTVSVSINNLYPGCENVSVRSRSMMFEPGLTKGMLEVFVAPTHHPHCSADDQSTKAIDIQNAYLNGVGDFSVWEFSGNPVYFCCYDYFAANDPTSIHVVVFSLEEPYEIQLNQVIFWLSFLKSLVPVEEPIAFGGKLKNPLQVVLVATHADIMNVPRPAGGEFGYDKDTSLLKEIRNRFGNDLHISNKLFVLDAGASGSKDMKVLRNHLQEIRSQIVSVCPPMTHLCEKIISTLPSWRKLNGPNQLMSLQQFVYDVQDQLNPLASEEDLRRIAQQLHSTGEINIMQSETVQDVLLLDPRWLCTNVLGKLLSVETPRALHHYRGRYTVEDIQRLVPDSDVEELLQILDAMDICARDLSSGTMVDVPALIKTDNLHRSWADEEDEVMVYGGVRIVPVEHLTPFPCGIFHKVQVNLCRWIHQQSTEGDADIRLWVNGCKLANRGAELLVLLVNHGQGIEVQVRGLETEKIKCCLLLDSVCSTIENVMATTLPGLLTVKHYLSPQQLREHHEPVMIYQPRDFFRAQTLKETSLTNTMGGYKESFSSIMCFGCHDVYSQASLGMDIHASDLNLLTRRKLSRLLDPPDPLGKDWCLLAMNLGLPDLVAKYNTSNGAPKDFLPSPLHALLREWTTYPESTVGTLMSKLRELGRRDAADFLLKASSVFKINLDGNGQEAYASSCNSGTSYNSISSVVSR
Experimental: as §1

FLT3 (ITD, F691L) = format: binding, human; details: 10 μM
Experimental: as §1

FLT3 (ITD) = format: binding, human; details: 10 μM
Experimental: as §1

[1] = test system: EGFR (L747-T751 del, Sins); format: binding, human; details: 10 μM
Experimental: as §1

FLT3 (ITD, D835V) = format: binding, human; details: 10 μM
Experimental: as §1

p38-α = biological target: T7, p38-α (Homo sapiens, UniProt Q16539); format: binding
T7 construct: purchased Eurofins DiscoverX KINOMEscan
T7 sequence (Q16539 whole entry): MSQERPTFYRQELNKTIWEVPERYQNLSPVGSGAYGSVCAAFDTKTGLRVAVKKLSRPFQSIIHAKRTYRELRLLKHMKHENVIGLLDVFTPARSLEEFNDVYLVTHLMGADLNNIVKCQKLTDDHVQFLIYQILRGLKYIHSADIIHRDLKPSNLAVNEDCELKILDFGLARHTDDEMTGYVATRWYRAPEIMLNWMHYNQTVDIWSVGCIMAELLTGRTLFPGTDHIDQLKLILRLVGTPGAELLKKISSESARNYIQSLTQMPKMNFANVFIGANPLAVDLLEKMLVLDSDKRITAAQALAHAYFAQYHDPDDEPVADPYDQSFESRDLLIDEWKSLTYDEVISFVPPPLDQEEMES
Experimental: as §1

MAPKAPK5 = biological target: T8, MAPKAPK5 (Homo sapiens, UniProt Q8IW41); format: binding
T8 construct: purchased Eurofins DiscoverX KINOMEscan
T8 sequence (Q8IW41 whole entry): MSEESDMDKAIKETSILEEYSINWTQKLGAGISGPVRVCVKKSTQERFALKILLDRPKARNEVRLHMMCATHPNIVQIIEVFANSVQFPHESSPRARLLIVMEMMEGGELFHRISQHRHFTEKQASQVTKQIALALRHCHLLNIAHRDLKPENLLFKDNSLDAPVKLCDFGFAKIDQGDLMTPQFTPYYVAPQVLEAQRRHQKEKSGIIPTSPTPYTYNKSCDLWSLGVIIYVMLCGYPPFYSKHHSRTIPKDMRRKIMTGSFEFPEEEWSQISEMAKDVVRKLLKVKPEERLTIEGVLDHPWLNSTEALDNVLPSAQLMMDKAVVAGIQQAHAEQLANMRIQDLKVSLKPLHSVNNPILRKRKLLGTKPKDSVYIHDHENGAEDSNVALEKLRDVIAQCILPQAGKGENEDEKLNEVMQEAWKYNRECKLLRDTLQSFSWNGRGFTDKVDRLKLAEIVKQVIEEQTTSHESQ
Experimental: as §1

KIT (A829P) = biological target: T9, KIT (A829P) (Homo sapiens, UniProt P10721, A829P); format: binding
T9 construct: purchased Eurofins DiscoverX KINOMEscan
Experimental: as §1

MEK1 = biological target: T10, MEK1 (Homo sapiens, UniProt Q02750); format: binding
T10 construct: purchased Eurofins DiscoverX KINOMEscan
Experimental: as §1

YANK1 = biological target: T11, YANK1 (Homo sapiens, UniProt Q8WU08); format: binding
T11 construct: purchased Eurofins DiscoverX KINOMEscan
Experimental: as §1

ABL1 (H396P)-P = biological target: T12, ABL1 (H396P)-P (Homo sapiens, UniProt P00519, H396P); format: binding
T12 construct: purchased Eurofins DiscoverX KINOMEscan
Experimental: as §1

MARK2 = biological target: T13, MARK2 (Homo sapiens, UniProt Q7KZI7); format: binding
T13 construct: purchased Eurofins DiscoverX KINOMEscan
T13 sequence (Q7KZI7 whole entry): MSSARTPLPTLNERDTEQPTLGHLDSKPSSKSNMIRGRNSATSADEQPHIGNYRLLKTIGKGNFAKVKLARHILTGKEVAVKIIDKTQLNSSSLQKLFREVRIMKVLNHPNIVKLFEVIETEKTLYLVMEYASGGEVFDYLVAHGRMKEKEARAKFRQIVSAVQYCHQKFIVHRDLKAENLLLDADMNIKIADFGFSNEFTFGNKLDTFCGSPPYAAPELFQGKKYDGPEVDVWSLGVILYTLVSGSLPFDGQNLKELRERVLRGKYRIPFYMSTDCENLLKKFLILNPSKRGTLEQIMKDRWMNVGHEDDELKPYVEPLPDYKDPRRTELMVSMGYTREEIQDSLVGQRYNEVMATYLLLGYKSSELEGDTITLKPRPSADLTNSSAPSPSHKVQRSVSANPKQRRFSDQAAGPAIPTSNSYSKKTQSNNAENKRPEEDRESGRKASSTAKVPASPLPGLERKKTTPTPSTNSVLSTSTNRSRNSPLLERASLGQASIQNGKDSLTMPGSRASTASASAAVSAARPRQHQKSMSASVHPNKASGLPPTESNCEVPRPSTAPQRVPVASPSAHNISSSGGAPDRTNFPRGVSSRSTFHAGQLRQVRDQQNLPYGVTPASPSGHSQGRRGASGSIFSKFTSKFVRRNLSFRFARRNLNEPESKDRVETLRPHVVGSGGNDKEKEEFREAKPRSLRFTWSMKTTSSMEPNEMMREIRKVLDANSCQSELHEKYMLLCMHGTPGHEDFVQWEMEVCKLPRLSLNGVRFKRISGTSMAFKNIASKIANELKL
Experimental: as §1

TIE1 = biological target: T14, TIE1 (Homo sapiens, UniProt P35590); format: binding
T14 construct: purchased Eurofins DiscoverX KINOMEscan
Experimental: as §1

PIK3CB = biological target: T15, PIK3CB (Homo sapiens, UniProt P42338); format: binding
T15 construct: purchased Eurofins DiscoverX KINOMEscan
Experimental: as §1

FLT1 = biological target: T16, FLT1 (Homo sapiens, UniProt P17948); format: binding
T16 construct: purchased Eurofins DiscoverX KINOMEscan
Experimental: as §1

MLK1 = biological target: T17, MLK1 (Homo sapiens, UniProt P80192); format: binding
T17 construct: purchased Eurofins DiscoverX KINOMEscan
Experimental: as §1

T1 sequence (Q9H422 whole entry): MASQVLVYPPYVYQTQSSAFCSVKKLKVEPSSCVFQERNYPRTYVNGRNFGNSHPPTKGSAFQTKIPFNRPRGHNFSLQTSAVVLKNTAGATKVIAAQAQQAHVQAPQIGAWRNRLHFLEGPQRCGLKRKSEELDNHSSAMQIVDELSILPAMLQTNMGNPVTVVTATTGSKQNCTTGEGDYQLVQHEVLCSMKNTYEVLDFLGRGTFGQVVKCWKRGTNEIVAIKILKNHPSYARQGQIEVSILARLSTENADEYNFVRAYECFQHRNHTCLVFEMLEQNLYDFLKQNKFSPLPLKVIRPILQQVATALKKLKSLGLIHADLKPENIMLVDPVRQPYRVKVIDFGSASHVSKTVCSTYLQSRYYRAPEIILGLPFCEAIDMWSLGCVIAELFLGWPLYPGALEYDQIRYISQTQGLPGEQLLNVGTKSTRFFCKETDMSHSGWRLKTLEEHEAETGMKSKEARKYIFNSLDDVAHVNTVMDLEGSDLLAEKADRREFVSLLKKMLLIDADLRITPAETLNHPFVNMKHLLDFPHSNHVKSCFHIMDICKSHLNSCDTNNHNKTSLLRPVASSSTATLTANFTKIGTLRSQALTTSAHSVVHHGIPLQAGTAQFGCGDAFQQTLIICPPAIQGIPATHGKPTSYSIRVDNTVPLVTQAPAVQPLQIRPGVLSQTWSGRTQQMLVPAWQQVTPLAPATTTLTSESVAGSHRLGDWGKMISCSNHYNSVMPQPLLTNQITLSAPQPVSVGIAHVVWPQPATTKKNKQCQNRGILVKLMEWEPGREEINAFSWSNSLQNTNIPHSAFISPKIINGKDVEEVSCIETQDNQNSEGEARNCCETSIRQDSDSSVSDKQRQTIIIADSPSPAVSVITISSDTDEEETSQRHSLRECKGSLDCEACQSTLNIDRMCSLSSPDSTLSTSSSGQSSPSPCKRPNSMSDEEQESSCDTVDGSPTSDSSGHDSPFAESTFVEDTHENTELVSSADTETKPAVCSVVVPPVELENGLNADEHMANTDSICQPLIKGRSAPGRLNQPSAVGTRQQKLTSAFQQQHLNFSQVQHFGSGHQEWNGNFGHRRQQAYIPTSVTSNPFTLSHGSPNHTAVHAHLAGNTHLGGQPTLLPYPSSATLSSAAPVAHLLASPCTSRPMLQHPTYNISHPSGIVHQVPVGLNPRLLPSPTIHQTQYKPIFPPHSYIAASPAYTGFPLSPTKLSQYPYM

O=C1Nc2c(ccc3c2CCCC3)C1=NO [Compound 5a, 3-(Hydroxyimino)-1,3,6,7,8,9-hexahydro-2H-benzo[g]indol-2-one]
Kd (HIPK3): 1300 ± 300 nM
Kd (DAPK3): 20500 ± 3500 nM
Kd (DYRK1A): 850 ± 120 nM
Kd (NEK10): 3200 ± 1000 nM
Kd (PIM1): 1800 ± 100 nM
Kd (DAPK1): 13500 ± 700 nM

O=C1Nc2c(cc([N+](=O)[O-])c3c2CCCC3)C1=NO [Compound 5d, 3-(Hydroxyimino)-5-nitro-1,3,6,7,8,9-hexahydro-2H-benzo[g]indol-2-one]
Inhib. (%) (FLT3 (ITD, F691L)): 66%
Inhib. (%) (FLT3 (ITD)): 29%
Inhib. (%) [1]: 22%
Inhib. (%) (FLT3 (ITD, D835V)): 65%
inhibition at 10 µM (HIPK3; 10 μM): 100%
Kd (HIPK3): 135 ± 70 nM
inhibition at 10 µM (p38-α): 0%
inhibition at 10 µM (DAPK3; 10 μM): 98.5%
Kd (DAPK3): 590 ± 28 nM
inhibition at 10 µM (MAPKAPK5): 2%
inhibition at 10 µM (DYRK1A; 10 μM): 98.8%
Kd (DYRK1A): 435 ± 78 nM
inhibition at 10 µM (NEK10; 10 μM): 100%
Kd (NEK10): 660 ± 71 nM
inhibition at 10 µM (KIT (A829P)): 0%
inhibition at 10 µM (MEK1): 93.1%
inhibition at 10 µM (PIM1; 10 μM): 98.2%
Kd (PIM1): 122 ± 54 nM
inhibition at 10 µM (YANK1): 11%
inhibition at 10 µM (ABL1 (H396P)-P): 41%
inhibition at 10 µM (MARK2): 36%
inhibition at 10 µM (TIE1): 12%
inhibition at 10 µM (PIK3CB): 0%
inhibition at 10 µM (FLT1): 12%
inhibition at 10 µM (MLK1): 18%
inhibition at 10 µM (DAPK1; 10 μM): 96.3%
Kd (DAPK1): 290 ± 20 nM
